The supplement of paper PMC7394473

Experiments:
Conditions in all cases: 72 h
U2OS [1] = assay: normalized growth rate inhibition value (GR) relative to untreated cells (GR value (dimensionless, 1 = untreated growth)); higher = less growth inhibition
Method: (§1)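 U2OS::Nuc-mKate2 cells seeded in 96-well plates and treated with eight- to ten-point half-log or log dilutions of drug in the presence of 50 nM SYTOX Green. Live (mKate2+) and dead (SYTOX+) cells were counted by IncuCyte STACK live-cell microscopy at 72 h; biological triplicates. GR is the normalised growth-rate inhibition value (Hafner 2016; 1 = untreated growth, <0 = population shrinking). FV is live/(live+dead) cells, not normalised.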

U2OS [2] = assay: GRmin (fitted minimal GR value at highest effect) (GR value (dimensionless)); higher = less efficacious
Method: (§2)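 U2OS cells treated with full dose titrations of drug; live and dead cells counted by STACK microscopy (mKate2 nuclei, SYTOX Green) at 72 h, biological triplicates. GR and FV dose responses were fitted with 4-parameter logistic models (GR lower bound -1). GRADE (0-100) is the rescaled angle of a linear fit of FV versus GR at doses with GR >= 0, giving the percentage of the response due to cell death.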

U2OS [3] = assay: GR50 (concentration giving GR = 0.5)
Method: as §2

U2OS [4] = assay: fractional viability (live cells / total cells); higher = less cell death
Method: as §1

U2OS [5] = assay: drug GRADE (percent of response due to cell death) (% (0-100)); higher = more death-driven response
Method: as §2

CCC(=O)N1CCN(c2ccc(-n3c(=O)ccc4cnc5ccc(-c6cnc7ccccc7c6)cc5c43)cc2C(F)(F)F)CC1 [Torin 1]
Conditions | fractional viability, U2OS [4] | normalized growth rate inhibition value, U2OS [1]
0.01 µM | 0.977 | 1.02
0.0316 µM | 0.976 | 0.896
0.1 µM | 0.966 | 0.749
0.316 µM | 0.954 | 0.525
1 µM | 0.937 | 0.404
3.16 µM | 0.917 | 0.275
10 µM | 0.895 | 0.147
31.6 µM | 0.792 | 0.114

Conditions | GR50 [µM] | GRmin | drug GRADE
U2OS [2] | – | 0.106 | –
U2OS [3] | 0.473 | – | –
U2OS [5] | – | – | 21.4

Cn1nnc2c(C(N)=O)ncn2c1=O [Temozolamide]
Conditions | fractional viability, U2OS [4] | normalized growth rate inhibition value, U2OS [1]
0.01 µM | 0.982 | 0.992
0.0316 µM | 0.982 | 1.07
0.1 µM | 0.981 | 0.975
0.316 µM | 0.977 | 1.05
1 µM | 0.975 | 0.984
3.16 µM | 0.978 | 0.894
10 µM | 0.98 | 0.954
31.6 µM | 0.975 | 1.02

Conditions | GRmin
U2OS [2] | 0.955

C#Cc1cccc(Nc2ncnc3cc(OCCOC)c(OCCOC)cc23)c1 [Erlotinib]
Conditions | fractional viability, U2OS [4] | normalized growth rate inhibition value, U2OS [1]
0.01 µM | 0.973 | 0.935
0.0316 µM | 0.976 | 0.993
0.1 µM | 0.977 | 1.03
0.316 µM | 0.967 | 0.986
1 µM | 0.96 | 1.06
3.16 µM | 0.96 | 0.928
10 µM | 0.913 | 0.636
31.6 µM | 0.697 | 0.545

Conditions | GRmin | drug GRADE
U2OS [2] | 0.542 | –
U2OS [5] | – | 62.1

COC1CCN(C(=O)c2cc(Cc3n[nH]c(=O)c4ccccc34)ccc2F)CC1 [AZD2461]
Conditions | fractional viability, U2OS [4] | normalized growth rate inhibition value, U2OS [1]
0.01 µM | 0.974 | 1.01
0.0316 µM | 0.973 | 0.882
0.1 µM | 0.978 | 0.946
0.316 µM | 0.975 | 0.923
1 µM | 0.972 | 0.93
3.16 µM | 0.97 | 0.849
10 µM | 0.959 | 0.682
31.6 µM | 0.919 | 0.407

Conditions | GR50 [µM] | GRmin | drug GRADE
U2OS [2] | – | 0.0439 | –
U2OS [3] | 21.7 | – | –
U2OS [5] | – | – | 13.6

CCc1cncnc1N1CCN(Cc2nc3ccc(C(F)(F)F)cc3[nH]2)CC1
Conditions | fractional viability, U2OS [4] | normalized growth rate inhibition value, U2OS [1]
0.00100578 µM | 0.988 | 1.06
0.00317827 µM | 0.988 | 0.948
0.0100433 µM | 0.988 | 1.04
0.0317369 µM | 0.988 | 1.02
0.100289 µM | 0.988 | 0.896
0.316912 µM | 0.986 | 1
1.00144 µM | 0.992 | 0.842
3.16456 µM | 0.989 | 0.943
10 µM | 0.98 | 0.734

CC(C)n1nc(-c2ccc3oc(N)nc3c2)c2c(N)ncnc21 [INK-128]
Conditions | fractional viability, U2OS [4] | normalized growth rate inhibition value, U2OS [1]
0.000318058 µM | 0.987 | 0.831
0.00100506 µM | 0.989 | 0.849
0.003176 µM | 0.989 | 0.896
0.0100362 µM | 0.987 | 0.726
0.0317143 µM | 0.982 | 0.484
0.100217 µM | 0.965 | 0.226
0.316686 µM | 0.95 | 0.223
1.00073 µM | 0.915 | 0.0973
3.1623 µM | 0.855 | -0.0193

Conditions | GR50 [µM] | GRmin | drug GRADE
U2OS [2] | – | 0.0247 | –
U2OS [3] | 0.0318 | – | –
U2OS [5] | – | – | 10.9

CN(C)/N=N/c1[nH]cnc1C(N)=O [Dacarbazine]
Conditions | fractional viability, U2OS [4] | normalized growth rate inhibition value, U2OS [1]
0.01 µM | 0.975 | 1.08
0.0316 µM | 0.984 | 1.01
0.1 µM | 0.974 | 0.899
0.316 µM | 0.978 | 0.939
1 µM | 0.975 | 0.934
3.16 µM | 0.964 | 0.821
10 µM | 0.942 | 0.837
31.6 µM | 0.926 | 0.769

Conditions | GRmin
U2OS [2] | 0.749

Cc1nn(C)c(COc2ccc(N3CCN(S(=O)(=O)N(C)C)CC3)cc2)c1-c1cccc2c(CCCOc3cccc4ccccc34)c(C(=O)O)n(CCN3CCOCC3)c12
Conditions | fractional viability, U2OS [4] | normalized growth rate inhibition value, U2OS [1]
0.00100578 µM | 0.991 | 0.982
0.00317827 µM | 0.989 | 0.925
0.0100433 µM | 0.987 | 0.967
0.0317369 µM | 0.991 | 0.917
0.100289 µM | 0.99 | 0.934
0.316912 µM | 0.987 | 0.942
1.00144 µM | 0.978 | 0.899
3.16456 µM | 0.96 | 0.919
10 µM | 0.852 | 0.718

C=CCNc1ncnc2ccc(Br)cc12 [SMER28]
Conditions | fractional viability, U2OS [4] | normalized growth rate inhibition value, U2OS [1]
0.01 µM | 0.977 | 1.03
0.0316 µM | 0.977 | 1.09
0.1 µM | 0.98 | 0.962
0.316 µM | 0.979 | 1.02
1 µM | 0.982 | 1.02
3.16 µM | 0.975 | 0.992
10 µM | 0.973 | 0.909
31.6 µM | 0.977 | 0.866

Conditions | GRmin
U2OS [2] | 0.864
